Where a name gives a salt, the structure may show the parent alone. Activity calls are given as the source filed them.

In assay [1] the target is Signal transducer and activator of transcription 3 (Homo sapiens, UniProt P40763). The assay is described as follows: STAT3 blockade with qPCR and toxicity readouts – cell-based, STAT1 panel, cytotoxicity, late-stage follow-up, panel member STAT3 Inhibition (AID 2078).
Assay [2] has as its target Signal transducer and activator of transcription 1-alpha/beta (Homo sapiens, UniProt P42224). The assay is described as follows: STAT3 blockade with qPCR and toxicity readouts – cell-based, STAT1 panel, cytotoxicity, late-stage follow-up, panel member STAT1 Inhibition (AID 2078).
The target in assay [3] is T1, Ubiquitin-conjugating enzyme E2 N (Homo sapiens, UniProt P61088).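 Further: Dose-response confirmation in a TR-FRET assay detecting UBC13-driven polyubiquitin chain formation, inhibition measured.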
T1 sequence (P61088 whole entry): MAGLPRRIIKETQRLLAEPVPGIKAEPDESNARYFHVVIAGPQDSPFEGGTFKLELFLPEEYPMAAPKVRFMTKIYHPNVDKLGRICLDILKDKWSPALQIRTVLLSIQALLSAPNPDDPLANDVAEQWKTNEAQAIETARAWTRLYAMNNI
Type of assay: functional.

Assay [4] has as its target DNA damage-inducible transcript 3 protein (Mus musculus, UniProt P35639). Type of assay: functional, Cricetulus griseus.
Assay [5] addresses Protein-arginine deiminase type-4 (Homo sapiens, UniProt Q9UM07). The assay is described as follows: IC50 against protein arginine deiminase 4 – biochemical, fluorescence readout, dose response (AID 492970).
For assay [6], the target named is T2, Replicative DNA helicase DnaB (Mycobacterium tuberculosis, UniProt P9WMR3).
T2 sequence (P9WMR3 whole entry): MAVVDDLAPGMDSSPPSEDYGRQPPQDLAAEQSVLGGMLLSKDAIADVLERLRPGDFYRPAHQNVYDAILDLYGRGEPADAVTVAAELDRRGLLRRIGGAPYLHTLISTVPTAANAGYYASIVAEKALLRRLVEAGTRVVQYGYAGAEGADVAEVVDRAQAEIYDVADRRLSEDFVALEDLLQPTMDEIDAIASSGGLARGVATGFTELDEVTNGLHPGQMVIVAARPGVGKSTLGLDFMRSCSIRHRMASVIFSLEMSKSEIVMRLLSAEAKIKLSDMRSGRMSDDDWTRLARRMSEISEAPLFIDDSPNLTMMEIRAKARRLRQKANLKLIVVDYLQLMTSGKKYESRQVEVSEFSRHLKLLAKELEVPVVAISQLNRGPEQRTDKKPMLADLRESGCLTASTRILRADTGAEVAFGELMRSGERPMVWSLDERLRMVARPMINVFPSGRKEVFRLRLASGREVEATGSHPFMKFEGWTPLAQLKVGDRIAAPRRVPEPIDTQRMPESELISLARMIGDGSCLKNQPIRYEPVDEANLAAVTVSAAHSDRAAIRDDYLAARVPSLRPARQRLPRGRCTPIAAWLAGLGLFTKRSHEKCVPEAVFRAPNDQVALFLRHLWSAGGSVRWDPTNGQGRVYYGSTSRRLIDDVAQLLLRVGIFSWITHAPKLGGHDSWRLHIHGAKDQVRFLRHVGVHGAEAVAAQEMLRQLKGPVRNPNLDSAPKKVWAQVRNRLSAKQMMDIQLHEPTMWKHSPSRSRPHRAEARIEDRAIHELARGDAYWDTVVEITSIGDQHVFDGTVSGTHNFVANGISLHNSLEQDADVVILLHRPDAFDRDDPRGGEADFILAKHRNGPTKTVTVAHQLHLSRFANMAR
The assay is described as follows: DnaB intein splicing inhibitors, dose response, biochemical, cell-free fluorescence (AID 449749). Type of assay: functional.

The target of assay [7] is T3, Protein RecA (Mycobacterium tuberculosis, UniProt P9WHJ3).
T3 sequence (P9WHJ3 whole entry): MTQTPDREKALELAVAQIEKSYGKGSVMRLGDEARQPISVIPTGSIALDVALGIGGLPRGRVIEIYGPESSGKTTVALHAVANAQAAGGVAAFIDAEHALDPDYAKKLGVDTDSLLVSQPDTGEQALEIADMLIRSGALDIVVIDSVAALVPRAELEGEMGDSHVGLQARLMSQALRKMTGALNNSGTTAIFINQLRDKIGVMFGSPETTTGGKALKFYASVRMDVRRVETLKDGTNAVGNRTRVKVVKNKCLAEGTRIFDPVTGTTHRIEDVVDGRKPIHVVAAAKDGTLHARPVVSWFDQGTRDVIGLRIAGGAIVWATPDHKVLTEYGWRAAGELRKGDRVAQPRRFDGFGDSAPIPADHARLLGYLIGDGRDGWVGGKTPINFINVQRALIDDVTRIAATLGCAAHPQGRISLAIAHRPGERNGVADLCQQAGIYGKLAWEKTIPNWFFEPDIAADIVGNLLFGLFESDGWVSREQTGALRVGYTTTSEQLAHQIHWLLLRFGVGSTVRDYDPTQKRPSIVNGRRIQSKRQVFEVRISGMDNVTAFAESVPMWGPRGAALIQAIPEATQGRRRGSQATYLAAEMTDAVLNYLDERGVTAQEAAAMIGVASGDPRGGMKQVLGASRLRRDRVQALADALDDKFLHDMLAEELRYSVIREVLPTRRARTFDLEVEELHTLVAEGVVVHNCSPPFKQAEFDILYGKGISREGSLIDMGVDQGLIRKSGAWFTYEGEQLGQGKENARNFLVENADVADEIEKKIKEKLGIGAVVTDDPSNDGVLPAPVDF
In words: Fluorescence Cell-Free Homogeneous Dose Retest to Identify Inhibitors of RecA-Intein Splicing Activity. [Related pubchem assays (depositor defined):AID2097, AID2223, AID489010, AID492950]. Type of assay: functional.

Assay [8] is described as follows: reduction of Shn3 3'UTR-driven luciferase in osteoblasts – cell-based, Clone20 osteoblasts, firefly luciferase, cherry-picked, dose response (AID 624132).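 Further: firefly luciferase luminescence from reporter carrying the Shn3 3'UTR in osteoblasts.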 Type of assay: functional.
Assay [9] can be described thus: loss of viability in HepG2 cells – cell-based, CellTiter-Glo, cherry-picked, cytotoxicity control for Shn3 inhibitor project, dose response (AID 624134). Type of assay: functional.
Assay [10] can be described thus: non-specific 3'UTR reporter inhibition in Clone20-Shn3RL – cell-based, Renilla luciferase, cherry-picked, counter-screen for Shn3 inhibitor project, dose response (AID 624133). It is filed as functional.
In assay [11] the target is T4, Caspase-6 (Homo sapiens, UniProt P55212).
T4 sequence (P55212 whole entry): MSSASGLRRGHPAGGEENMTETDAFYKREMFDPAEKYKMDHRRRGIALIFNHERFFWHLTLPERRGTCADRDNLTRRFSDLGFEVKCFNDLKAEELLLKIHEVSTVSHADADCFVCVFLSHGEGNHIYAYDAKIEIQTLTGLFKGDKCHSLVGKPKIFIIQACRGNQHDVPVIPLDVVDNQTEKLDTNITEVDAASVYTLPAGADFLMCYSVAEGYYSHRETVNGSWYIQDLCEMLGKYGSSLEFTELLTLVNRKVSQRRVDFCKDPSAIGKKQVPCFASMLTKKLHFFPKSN
In words: inhibition of CASP6 peptide cleavage – biochemical, VEID-R110 fluorescence, cherry-pick, dose response (AID 720632).

A short description of assay [12]: rise of 2N DNA cells, HeLa – IC50, dose response (AID 1117349). Type of assay: functional, cell-based.
The nature of assay [13]: rise of 4N DNA cells, HeLa – IC50, dose response (AID 1117351). It is filed as functional, cell-based.
The target of assay [14] is Voltage-dependent T-type calcium channel subunit alpha-1H (Homo sapiens, UniProt O95180). The assay is described as follows: human CACNA1H calcium influx blockade – cell-based, synthetic library set 2, HEK293 HH8, Fluo-4, SAR follow-up (AID 493023). It is filed as functional.
For assay [15], the target named is T5, Sphingosine 1-phosphate receptor 4 (Homo sapiens, UniProt O95977).
T5 sequence (O95977 whole entry): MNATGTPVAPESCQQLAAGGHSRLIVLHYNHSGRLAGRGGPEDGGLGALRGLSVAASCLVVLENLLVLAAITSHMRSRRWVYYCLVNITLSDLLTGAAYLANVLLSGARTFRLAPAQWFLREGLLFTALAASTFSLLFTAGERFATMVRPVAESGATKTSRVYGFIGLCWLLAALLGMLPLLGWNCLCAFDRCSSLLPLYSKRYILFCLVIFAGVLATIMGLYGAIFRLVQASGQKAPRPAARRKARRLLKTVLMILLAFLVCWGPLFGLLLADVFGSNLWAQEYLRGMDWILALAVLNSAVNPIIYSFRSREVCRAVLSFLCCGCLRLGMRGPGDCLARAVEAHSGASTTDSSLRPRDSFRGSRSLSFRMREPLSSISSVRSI
The assay is described as follows: Late-stage fluorescence dose response cell-based assay to identify agonists of the Sphingosine 1-Phosphate Receptor 4 (S1P4): purchased compounds EC50. [Related pubchem assays (depositor defined):AID1509, AID1523, AID1563, AID1686, AID1701, AID1801]. Type of assay: functional.

Assay [16] has as its target T6, Tyrosine-protein phosphatase non-receptor type 7 (Homo sapiens, UniProt P35236).
T6 sequence (P35236 whole entry): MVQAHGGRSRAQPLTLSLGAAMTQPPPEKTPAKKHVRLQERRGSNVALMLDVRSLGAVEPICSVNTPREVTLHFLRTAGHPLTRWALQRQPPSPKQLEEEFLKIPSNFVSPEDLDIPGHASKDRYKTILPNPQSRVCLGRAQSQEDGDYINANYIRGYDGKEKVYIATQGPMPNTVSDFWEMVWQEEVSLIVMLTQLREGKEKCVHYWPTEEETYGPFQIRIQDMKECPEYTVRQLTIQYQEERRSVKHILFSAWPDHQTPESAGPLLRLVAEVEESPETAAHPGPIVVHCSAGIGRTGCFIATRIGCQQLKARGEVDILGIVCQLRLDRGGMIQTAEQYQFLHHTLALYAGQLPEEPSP
The assay is described as follows: inhibition of hematopoietic tyrosine phosphatase HePTP – biochemical, set 2, SAR follow-up (AID 449736). It is filed as functional.

Assay [17] deals with T7, E3 ubiquitin-protein ligase XIAP (Homo sapiens, UniProt P98170). In words: SAR analysis of Antagonists of XIAP-Bir3 domain of IAP-family anti-apoptotic proteins. [Related pubchem assays (depositor defined):AID1018, AID1449, AID1513, AID1514, AID1638].
Assay [18] concerns the target T7, E3 ubiquitin-protein ligase XIAP. In words: SAR analysis of Antagonists of IAP-family anti-apoptotic proteins. [Related pubchem assays (depositor defined):AID1018, AID1449, AID1513, AID1514, AID1638].
Assay [19] deals with Troponin, cardiac muscle (Homo sapiens, UniProt P19429+P45379+P63316). The assay is described as follows: Fluorescence-based biochemical high throughput dose response assay for activators of the calcium sensitivity of cardiac Regulated Thin Filaments (RTF). [Related pubchem assays (depositor defined):AID493008, AID493018, AID504382, AID504383]. It is filed as protein-complex assay.

Assay [20] addresses Alkaline phosphatase, placental type (Homo sapiens, UniProt P05187). The assay is described as follows: human placental alkaline phosphatase inhibition – biochemical, luminescence, confirmation (AID 1512). It is filed as functional.
Assay [21] deals with T8, Alkaline phosphatase, tissue-nonspecific isozyme (Homo sapiens, UniProt P05186).
T8 sequence (P05186 whole entry): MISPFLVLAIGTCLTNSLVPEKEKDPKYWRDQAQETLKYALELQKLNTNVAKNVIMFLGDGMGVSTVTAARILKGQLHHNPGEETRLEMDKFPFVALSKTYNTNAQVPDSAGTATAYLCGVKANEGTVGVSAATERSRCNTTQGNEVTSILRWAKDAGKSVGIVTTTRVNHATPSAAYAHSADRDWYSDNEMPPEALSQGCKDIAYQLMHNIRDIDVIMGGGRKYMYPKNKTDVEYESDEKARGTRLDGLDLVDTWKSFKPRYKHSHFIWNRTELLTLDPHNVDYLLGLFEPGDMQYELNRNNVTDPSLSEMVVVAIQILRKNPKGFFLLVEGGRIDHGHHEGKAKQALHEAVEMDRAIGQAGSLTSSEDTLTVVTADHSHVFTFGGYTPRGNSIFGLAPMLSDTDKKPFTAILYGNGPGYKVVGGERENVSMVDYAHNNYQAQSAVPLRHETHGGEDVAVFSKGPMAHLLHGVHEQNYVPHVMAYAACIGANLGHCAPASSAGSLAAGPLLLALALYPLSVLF
In words: potency against alkaline phosphatase TNAP – biochemical, luminescent, dose response, SAR follow-up (AID 1056).

On to `c1ccc(CC2CCN(c3ncnc4sc5c(c34)CCC5)CC2)cc1`, for which the IC50 is 20 µM (inactive) in assay [1] and > 55.7 µM (inactive) in [2].

With `CCOC(=O)c1cc(-c2ccccc2)nc2c1c(C)nn2-c1ccccn1`, the IC50 in [3] is > 20 µM (inactive). Also, in [4], the “Absolute IC50 (CHOP)” value is 10 µM.

Turning to `COc1ccc(Cc2nccc3cc(OC)c(OC)cc23)cc1OC` [PAPAVERINE HYDROCHLORIDE], the IC50 is 39 µM (inactive) in assay [5], > 10 µM (inactive) in assay [12] and > 10 µM (inactive) in assay [13]. Further, the AC50 in assay [6] is 5.66 µM (active); in [8], 2.48 µM (active); in assay [9], 8.06 µM (active); in assay [10] it was 20.8 µM (active); in assay [11], 22 µM (active). The half-maximal effective concentration (EC50) in [7] is 3.01 µM (active).

For the compound `CC(C)(C)CCN1CCC[C@H](NC(=O)c2ccc(Cl)cc2Cl)C1`, the EC50 in assay [14] is 10 µM (active).

Regarding `Cc1ccc(Oc2ncc(Cl)cc2Cl)c([N+](=O)[O-])n1`, in [15], the EC50 is > 50 µM (inactive).

Consider `Cc1ccc(-n2c(N)c(C(=O)N3CCN(c4ccccc4F)CC3)sc2=S)cc1`, for which the IC50 in assay [16] is > 100 µM (inactive).

Regarding `CN[C@@H](C)C(=O)NC1CCCN(CC(=O)NC2CCc3ccccc3C2)C1=O` (stereo partly specified), the IC50 in assay [17] and in assay [18] was > 100 µM (inactive) in each case.

Turning to `COc1ccc(/C=N/NC(=O)c2cccnc2)cc1CN1CCOCC1`, in assay [19], the EC50 was > 71.5 µM (inactive).

As for `C=CCn1c(SCC(=O)c2ccc(O)c(O)c2)nnc1-c1ccc(C)cc1`, the 50% inhibitory concentration (IC50) in [20] was 8.57 µM (active); in assay [21], > 100 µM (inactive).

(Values after ChEMBL document CHEMBL1201862, “PubChem BioAssay data set” (2004).)
